Experimental data: patent US20050192314A1, “Urea derivatives as C-kit modulators” (Ambit Biosciences Corporation, priority 2003, published 2005)

These molecules were tested against T1, KIT(DKIN) (Homo sapiens, UniProt P10721) (assay: Binding constant (Kd) measurement, phage-displayed kinase competition binding assay: KIT(DKIN)).
T1 construct: KIT(DKIN); made in house
Excerpt: The term “ND” represents non-determined values.

T1 sequence (P10721 589-937 limits assumed): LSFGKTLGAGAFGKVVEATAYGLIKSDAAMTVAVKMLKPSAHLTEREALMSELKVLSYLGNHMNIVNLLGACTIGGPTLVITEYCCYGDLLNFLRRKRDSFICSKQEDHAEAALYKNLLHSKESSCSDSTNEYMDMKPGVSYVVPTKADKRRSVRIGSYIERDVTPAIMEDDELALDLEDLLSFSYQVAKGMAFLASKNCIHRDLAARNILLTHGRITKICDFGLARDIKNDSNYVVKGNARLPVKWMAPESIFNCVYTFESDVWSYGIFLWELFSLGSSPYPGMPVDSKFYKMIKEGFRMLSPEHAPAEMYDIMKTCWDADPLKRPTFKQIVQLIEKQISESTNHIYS

Compound | Kd
CC(C)(CO)c1cc(NC(=O)Nc2ccc(OCc3ccccc3)cc2)on1 [Compound G2] | 0.1 to 1 µM
CC(C)(C)c1cc(NC(=O)Nc2ccc(OCc3cccc(F)c3)cc2)no1 [Compound G14] | 0.1 to 1 µM
Cc1ccc(NC(=O)Nc2cc(C(C)(C)C)on2)cc1 [Compound A33] | 0.1 to 1 µM
CC(C)(C)c1cc(NC(=O)Nc2ccc(OCCN3CCC(O)CC3)cc2)no1 [Compound G48] | > 10 µM
CC(C)(C)c1cc(NC(=O)Nc2ccc(Cl)cc2)on1 [Compound A32] | 0.1 to 1 µM
COC(=O)c1cccc(COc2ccc(NC(=O)Nc3cc(C(C)(C)C)on3)cc2)c1 [Compound G7] | 0.1 to 1 µM
Cc1c(Cl)cccc1NC(=O)Nc1cc(C(C)(C)C)on1 [Compound A5] | 1 to 10 µM
CC(C)(C)c1cc(NC(=O)Nc2ccc3cc4ccccc4cc3c2)no1 [Compound A18] | 1 to 10 µM
CC(C)(C)c1cc(NC(=O)Nc2ccc(OCc3ccccc3Cl)cc2)no1 [Compound G10] | < 0.1 µM
CC(C)(C)c1cc(NC(=O)Nc2ccc(OCCN3CCNCC3)cc2)no1 [Compound G52] | > 10 µM
CC(C)(C)c1cc(NC(=O)Nc2ccc(OCc3ccc(OC(F)(F)F)cc3)cc2)no1 [Compound G5] | 0.1 to 1 µM
COc1ccc(NC(=O)Nc2cc(C(C)(C)C)on2)cc1 [Compound A29] | 1 to 10 µM
CC(C)(C)c1cc(NC(=O)Nc2ccc(OCCc3ccccc3F)cc2)no1 [Compound G25] | 0.1 to 1 µM
CC(C)(C)c1cc(NC(=O)Nc2ccc(OCCN3CCOCC3)cc2)no1 [Compound G40] | 1 to 10 µM
CC(C)(C)c1cc(NC(=O)Nc2ccc(N)cc2)no1 [Compound C1, 1-(5-tert-butylisoxazol-3-yl)-3-(4-aminophenyl)urea] | 1 to 10 µM
COc1cc(NC(=O)Nc2cc(C(C)(C)C)no2)cc(OC)c1OC [Compound A49] | 0.1 to 1 µM
CC1CCCN(CCOc2ccc(NC(=O)Nc3cc(C(C)(C)C)on3)cc2)C1 (centres unmarked) [Compound G44] | > 10 µM
CC(C)(C)c1cc(NC(=O)Nc2ccc(F)cc2)no1 [Compound A47] | 1 to 10 µM
COc1ccc(NC(=O)Nc2cc(C(C)(C)C)no2)cc1 [Compound A30] | 0.1 to 1 µM
CC(C)(C)c1cc(NC(=O)Nc2ccc(OCc3ccc(F)cc3Cl)cc2)no1 [Compound G18] | 0.1 to 1 µM
CC(C)(C)c1cc(NC(=O)Nc2ccc(OCc3ccc(Cl)cc3)cc2)no1 [Compound G34] | < 0.1 µM
Cc1nccn1CCOc1ccc(NC(=O)Nc2cc(C(C)(C)C)on2)cc1 [Compound G51] | 0.1 to 1 µM
CC(C)(C)c1cc(NC(=O)Nc2ccc(OCCN3CCCCC3)cc2)no1 [Compound G50] | > 10 µM
CC(C)(C)c1cc(NC(=O)Nc2ccncc2)no1 [Compound A53] | 1 to 10 µM
CC(C)(C)c1cc(NC(=O)Nc2ccc(OCc3c(Cl)cccc3Cl)cc2)no1 [Compound G19] | 0.1 to 1 µM
CC(C)(C)c1cc(NC(=O)Nc2ccc(CCc3ccccc3)cc2)no1 [Compound A15] | 0.1 to 1 µM
CC(C)(C)c1cc(NC(=O)Nc2ccc(CCc3ccc(N)cc3)cc2)no1 [Compound A3] | < 0.1 µM
C=CCOc1ccc(NC(=O)Nc2cc(C(C)(C)C)no2)cc1 [Compound G32] | < 0.1 µM
CC(C)(C)c1cc(NC(=O)Nc2ccc(OCc3ccc(C(=O)c4ccccc4)cc3)cc2)no1 [Compound G9] | 0.1 to 1 µM
CC1CN(CCOc2ccc(NC(=O)Nc3cc(C(C)(C)C)on3)cc2)CCN1 (centres unmarked) [Compound G46] | > 10 µM

Now from value to molecule:

Kd | Compound
1 to 10 µM | CC(C)(C)c1cc(NC(=O)Nc2ccc(-c3nc(-c4cccc5ccccc45)no3)cc2)no1 [Compound P5]
1 to 10 µM | CC(C)(C)c1cc(NC(=O)Nc2ccc(NC(=O)c3c4ccccc4nc4ccccc34)cc2)no1 [Compound N148]
1 to 10 µM | O=C(Nc1ccccc1)Nc1ccc(-n2cnc(Cl)c2Cl)cc1 [Compound Z65]
0.1 to 1 µM | Cc1sc(NC(=O)Nc2ccc(Cl)cc2)c(C(N)=O)c1C [Compound Z58]
< 0.1 µM | CC(C)(C)c1cc(NC(=O)Nc2ccc(NC(=O)c3cn4cc(Cl)ccc4n3)cc2)no1 [Compound N3]
0.1 to 1 µM | CC(C)(C)c1cc(NC(=O)Nc2ccc(C(=O)NCc3ccc4c(c3)OCO4)cc2)no1 [Compound N97]
0.1 to 1 µM | CC(C)(C)c1cc(NC(=O)Nc2ccc(C(=O)NCCO)cc2)no1 [Compound N87]
1 to 10 µM | CC(C)(C)c1cc(NC(=O)Nc2ccc(NC(=O)c3ncccc3C(N)=O)cc2)no1 [Compound N6]
0.1 to 1 µM | CC(C)(C)c1cc(NC(=O)Nc2ccc(NC(=O)Cc3ccc(-c4ccccc4)cc3)cc2)no1 [Compound N38]
< 0.1 µM | CC(C)(C)c1cc(NC(=O)Nc2ccc(NC(=O)c3ncc[nH]3)cc2)no1 [Compound N13]
0.1 to 1 µM | CC(C)(C)c1cc(NC(=O)Nc2ccc(NC(=O)c3c(Cl)cccc3Cl)cc2)no1 [Compound N94]
0.1 to 1 µM | CC(C)(C)c1cc(NC(=O)Nc2ccc(NC(=O)c3cnc4ccccc4c3)cc2)no1 [Compound N108]
< 0.1 µM | CC(C)(C)c1cc(NC(=O)Nc2ccc(NC(=O)c3cccc(O)n3)cc2)no1 [Compound N131]
0.1 to 1 µM | CC(C)(C)c1cc(NC(=O)Nc2ccc(NC(=O)c3cc4cc(Br)ccc4s3)cc2)no1 [Compound N17]
0.1 to 1 µM | Cc1cccnc1-c1noc(-c2ccc(NC(=O)Nc3cc(C(C)(C)C)on3)cc2)n1 [Compound P4]
1 to 10 µM | CC(C)(C)c1cc(NC(=O)Nc2ccc(C(=O)Nc3cccc(C(F)(F)F)c3)cc2)no1 [Compound N154]
0.1 to 1 µM | COc1cccc(-c2ccc(C(=O)Nc3ccc(NC(=O)Nc4cc(C(C)(C)C)on4)cc3)o2)c1 [Compound N105]
1 to 10 µM | Cc1ccc(-c2cc(C(=O)Nc3ccc(NC(=O)Nc4cc(C(C)(C)C)on4)cc3)c(C)o2)cc1 [Compound N120]
0.1 to 1 µM | C[C@H](NC(=O)c1ccc(NC(=O)Nc2cc(C(C)(C)C)on2)cc1)c1ccccc1 [Compound N88]
0.1 to 1 µM | CCOC(=O)CCc1c(C)[nH]c(C(=O)Nc2ccc(NC(=O)Nc3cc(C(C)(C)C)on3)cc2)c1C [Compound N83]
> 10 µM | CC(C)(C)c1cc(NC(=O)Nc2ccc(NC(=O)C3CNCCN3)cc2)no1 (centres unmarked) [Compound N152]
0.1 to 1 µM | CNC(=O)c1ccc(NC(=O)Nc2cc(C(C)(C)C)on2)cc1 [Compound N85]
0.1 to 1 µM | COC(=O)c1ccc(C(=O)Nc2ccc(NC(=O)Nc3cc(C(C)(C)C)on3)cc2)nc1 [Compound N12]
0.1 to 1 µM | CC(C)(C)c1cc(NC(=O)Nc2ccc(NC(=O)c3ccnc4ccccc34)cc2)no1 [Compound N141]
< 0.1 µM | CC(C)(C)c1cc(NC(=O)Nc2ccc(NC(=O)c3cccc4nsnc34)cc2)no1 [Compound N21]
0.1 to 1 µM | Cn1nc(C(C)(C)C)cc1NC(=O)Nc1ccc(OCc2ccccc2)cc1 [Compound H2]
< 0.1 µM | CC(C)(C)c1cc(NC(=O)Nc2ccc(NC(=O)c3cccc4cccnc34)cc2)no1 [Compound N115]

Kd | Compound
> 10 µM | Cn1nc(-c2ccccc2)c(C(=O)Cc2ccc(NC(=O)Nc3cc(C(C)(C)C)on3)cc2)c1Cl [Compound N11]
0.1 to 1 µM | Cc1ccc(NC(=O)Nc2cc(C(F)(F)F)cc(Cl)n2)cc1 [Compound W1]
1 to 10 µM | COc1ccc(-c2noc(-c3ccc(NC(=O)Nc4cc(C(C)(C)C)on4)cc3)n2)c2ccccc12 [Compound P3]
> 10 µM | Cc1ccc(-n2nc(C(C)(C)C)cc2NC(=O)Nc2ccc(OCc3ccccc3)cc2)cc1 [Compound H5]
> 10 µM | Cc1nc(C(=O)Nc2ccc(NC(=O)Nc3cc(C(C)(C)C)on3)cc2)nn1-c1cc(Cl)cc(Cl)c1 [Compound N15]
> 10 µM | Cc1cc(C)n(C(=O)Nc2ccc(Cl)cc2)n1 [Compound Z52]
> 10 µM | Cc1ccc(-n2nc(C(C)(C)C)cc2NC(=O)Nc2cc(C(C)(C)C)on2)cc1 [Compound H11]
0.1 to 1 µM | CC(C)(C)c1cc(NC(=O)Nc2ccc(NC(=O)c3csnn3)cc2)no1 [Compound N14]
0.1 to 1 µM | CCc1ccc(C(=O)Nc2ccc(NC(=O)Nc3cc(C(C)(C)C)on3)cc2)cc1 [Compound N32]
1 to 10 µM | CC(C)(C)c1cc(NC(=O)Nc2ccc(OCCN3CCOCC3)c3ccccc23)no1 [Compound K1]
0.1 to 1 µM | Cn1cc(C(=O)Nc2ccc(NC(=O)Nc3cc(C(C)(C)C)on3)cc2)c2ccccc21 [Compound N119]
0.1 to 1 µM | CC(C)(C)c1cc(NC(=O)Nc2ccc(C(=O)Nc3ccc(F)cc3F)cc2)no1 [Compound N153]
1 to 10 µM | CC(C)(C)c1cc(NC(=O)Nc2ccc(NC(=O)c3cc4cc(Br)ccc4s3)cc2)no1 [Compound N126]
< 0.1 µM | CC(C)(C)c1cc(NC(=O)Nc2ccc(NC(=O)c3cc([N+](=O)[O-])ccn3)cc2)no1 [Compound N7]
1 to 10 µM | CC(C)(C)c1cc(NC(=O)Nc2ccc(NC(=O)c3cc(Cl)cn(Cc4ccccc4)c3=O)cc2)no1 [Compound N112]
< 0.1 µM | Cc1noc(-c2ccc(NC(=O)Nc3cc(C(C)(C)C)on3)cc2)n1 [Compound P9]
0.1 to 1 µM | CC(C)(C)c1cc(NC(=O)Nc2ccc(C(=O)Nc3ccc(OCC4CCC4)cc3)cc2)no1 [Compound N100]
0.1 to 1 µM | Cn1cc(C(=O)Nc2ccc(NC(=O)Nc3cc(C(C)(C)C)on3)cc2)c(C(F)(F)F)n1 [Compound N20]
1 to 10 µM | C/C=C/C(=O)Nc1ccc(NC(=O)Nc2cc(C(C)(C)C)on2)cc1 [Compound N93]
0.1 to 1 µM | CC(C)(C)c1cc(NC(=O)Nc2ccc(-c3nc(-c4ccc(Cl)cc4)no3)cc2)no1 [Compound P7]
1 to 10 µM | CC(C)(C)c1cc(NC(=O)Nc2ccc(C(=O)Nc3ccc(Cl)cc3)cc2)no1 [Compound N156]
1 to 10 µM | COc1nc(C)cc(C)c1C(=O)Nc1ccc(NC(=O)Nc2cc(C(C)(C)C)on2)cc1 [Compound N22]
0.1 to 1 µM | Cc1ccc(C(=O)Nc2ccc(NC(=O)Nc3cc(C(C)(C)C)on3)cc2)cn1 [Compound N142]
0.1 to 1 µM | CC(C)(C)c1cc(NC(=O)Nc2ccc(NC(=O)c3ccccc3)cc2)no1 [Compound N34]
0.1 to 1 µM | CC(C)(C)c1cc(NC(=O)Nc2ccc(NC(=O)CCc3ccccc3)cc2)no1 [Compound N96]
< 0.1 µM | CC(C)(C)c1cc(NC(=O)Nc2ccc(NC(=O)c3ccccc3Cl)cc2)no1 [Compound N23]
